What was measured:
UACC62 melanoma cells = experiment: In vitro growth-inhibition/cytotoxicity assay, UACC62 cells; type: cell-based, human; conditions: UACC62 cells
[1] = tested on: GPNMB surface expression on A375 melanoma cells; experiment: Flow cytometry of GPNMB surface expression, A375 cells; type: cell-based, human; conditions: for GPNMB surface expression, flow cytometry GeoMean: A375, CR011 (anti-GPNMB) primary antibody
Method: (§1) Cells were seeded in 6-well tissue culture dishes at a subconfluent density and allowed to attach overnight. The following day, cells were treated as indicated in the figures/legends, harvested with versene (Invitrogen), washed with PBS and incubated with primary antibody (10 μg/mL) diluted in staining buffer (PBS pH 7.4, 4% FBS, 0.1% sodium azide) for 30 minutes on ice. […] After incubation with primary antibody, samples were washed with staining buffer and then incubated with secondary antibody (PE-conjugated anti-human antibody; 1:100) for 30 minutes on ice. After incubation, samples were washed with staining buffer and examined on a Becton Dickinson FACSCalibur flow cytometer (BD Immunocytometry Systems, San Jose, Calif.). Data analysis was performed with Becton Dickinson Cell Quest software and the geometric mean fluorescence intensity (GeoMean) was determined for each sample.
(§2) For the data shown in Table 37, flow cytometry was performed on intact, non-permeabilized cells using the indicated primary monoclonal antibodies. […] The results are reported as GeoMeans. […] For the data shown in the bottom left panel of Table 37, SKMEL2 (melanoma) cells were treated with MEKi (U0126; 10 uM), imatinib (20 uM), p38i (p38 MAPKi SB202190; 50 uM), NH4Cl (ammonium chloride; 20 mM) or CLQ (chloroquine; 20 uM) for 48 hours prior to analysis. For the data shown in the bottom right panel of Table 37, WM2664 (melanoma) cells were treated with MON (monensin) or MMPi (GM6001) for 48 hours prior to analysis.

SKMEL2 cells = SKMEL2 cells (FIG. 4C)
Method: Cells were seeded in tissue culture dishes at a subconfluent density and allowed to attach overnight. The following day, cells were treated with or without U0126 (1 μM) diluted in growth media and incubated for 48 hours. […] After incubation, photomicrographs were taken and adherent cells were trypsinized, mixed with trypan blue dye and counted on a haemocytometer. Only viable cells which excluded trypan blue were counted. For SKMEL2, cells were seeded in 96-well plates after U0126 treatment and assayed after 72 h using the CellTiter-Glo assay according to the manufacturer's instructions (Promega, Madison, Wis.).

[2] = tested on: GPNMB surface expression on SF539 glioblastoma cells; experiment: Flow cytometry of GPNMB surface expression, SF539 cells; type: cell-based, human; conditions: SF549, CR011 (anti-GPNMB) primary antibody
Method: as §1, §2

[3] = tested on: GPNMB surface expression on SKMEL2 melanoma cells; experiment: Flow cytometry of GPNMB surface expression, SKMEL2 cells; type: cell-based, human; conditions: SKMEL2; CR011 (anti-GPNMB) primary antibody; MEKi (U0126) 10 uM, imatinib 20 uM, p38i (SB202190) 50 uM
Method: as §1
For the data shown in Table 37, flow cytometry was performed on intact, non-permeabilized cells using the indicated primary monoclonal antibodies. […] The results are reported as GeoMeans. For the data shown in the top panel of Table 37, A375 (melanoma) or SF539 (glioblastoma) cells were treated with the indicated concentrations of MEKi (U0126), RAFKi (553013) or ERKi (FR180204) for 12, 24 or 48 hours prior to analysis. For the data shown in the bottom left panel of Table 37, SKMEL2 (melanoma) cells were treated with MEKi (U0126; 10 uM), imatinib (20 uM), p38i (p38 MAPKi SB202190; 50 uM), NH4Cl (ammonium chloride; 20 mM) or CLQ (chloroquine; 20 uM) for 48 hours prior to analysis. For the data shown in the bottom right panel of Table 37, WM2664 (melanoma) cells were treated with MON (monensin) or MMPi (GM6001) for 48 hours prior to analysis.

## N#CC(=C(/N)Sc1ccccc1N)/C(C#N)=C(\N)Sc1ccccc1N [Mab U0126]
UACC62 melanoma cells
  sensitization to CR011-vcMMAE by pretreatment, CellTiter-Glo assay (ATP): confirmed
  sensitization to growth-inhibitory activity of CR011-vcMMAE by pretreatment: sensitized
[1]; MEKi (U0126) 5 um, 12 h
  GPNMB surface expression, flow cytometry GeoMean: 14.7
[1]; MEKi (U0126) 5 um, 24 h
  GPNMB surface expression, flow cytometry GeoMean: 16.4
[1]; MEKi (U0126) 5 um, 48 h
  GPNMB surface expression, flow cytometry GeoMean: 52.4
[1]; MEKi (U0126) 20 um, 12 h
  GPNMB surface expression, flow cytometry GeoMean: 18.3
[1]; MEKi (U0126) 20 um, 24 h
  GPNMB surface expression, flow cytometry GeoMean: 22.4
[1]; MEKi (U0126) 20 um, 48 h
  GPNMB surface expression, flow cytometry GeoMean: 84.0
[1]; A375 melanoma, 12, 24 or 48 hours (Table 37, top)
  GPNMB surface expression: induced GPNMB surface expression
SKMEL2 cells
  sensitization to CR011-vcMMAE by pretreatment: sensitized
[2]; MEKi (U0126) 5 um, 12 h
  GPNMB surface expression, flow cytometry GeoMean: 41.5
[2]; MEKi (U0126) 5 um, 24 h
  GPNMB surface expression, flow cytometry GeoMean: 36.3
[2]; MEKi (U0126) 5 um, 48 h
  GPNMB surface expression, flow cytometry GeoMean: 41.5
[2]; MEKi (U0126) 20 um, 12 h
  GPNMB surface expression, flow cytometry GeoMean: 46.3
[2]; MEKi (U0126) 20 um, 24 h
  GPNMB surface expression, flow cytometry GeoMean: 39.2
[3]
  GPNMB surface expression, flow cytometry GeoMean: 174.5
